According to ChEMBL document CHEMBL3885861, “Open TG-GATES”:

Species: Rattus norvegicus
Test: Open TG-GATES - Regimen: Daily Repeat
Type: toxicity, organism-based, Sprague-Dawley
Parameters: regimen Daily Repeat, gender Male, age 6 weeks
Details: in vivo, iv, 1 mg/kg, route intravenous injection, dose level High; for APTT / Bas / Eos / Fbg / Hb / Ht / Lym / MCH / MCHC / MCV / Mono / Neu / PT / Plat / RBC / Ret / WBC: tissue Blood; for KIDNEY_L / KIDNEY_R / KIDNEY_TOTAL: tissue Kidney; for LIVER: tissue Liver; for A/G / ALP / ALT / AST / BUN / CRE / Ca / Cl / DBIL / GLC / IP / K / LDH / Na / PL / RALB / TBIL / TC / TG / TP / gamma-GTP: tissue Plasma

## C[C@@H]1[C@H](O)[C@@H](C)/C=C/C=C/C=C/C=C/C=C/C=C/C=C/[C@H](O[C@@H]2O[C@H](C)[C@@H](O)[C@H](N)[C@@H]2O)C[C@@H]2O[C@](O)(C[C@@H](O)C[C@@H](O)[C@H](O)CC[C@@H](O)C[C@@H](O)CC(=O)O[C@H]1C)C[C@H](O)[C@H]2C(=O)O [AMPHOTERICIN B]
72 h, time 3 day
  TERMINAL_BW: 235.4 g
  APTT: 15.8 s
  Bas: 0%
  Eos: 0.8%
  Fbg: 303.4 mg/dL
  Hb: 13.7 g/dL
  Ht: 39.2%
  Lym: 80.8%
  MCH: 21.3 pg
  MCHC: 34.8%
  MCV: 61.1 fL
  Mono: 2.2%
  Neu: 15.2%
  PT: 12.3 s
  Plat: 136.2 x10_4/uL
  RBC: 643 x10_4/ul
  Ret: 4.2%
  WBC: 106.4 x10_2/uL
  KIDNEY_L: 1 g
  KIDNEY_R: 1 g
  KIDNEY_TOTAL: 2 g
  LIVER: 10.7 g
  A/G: 0.8
  ALP: 1621.8 IU/L
  ALT: 32 IU/L
  AST: 61.2 IU/L
  BUN: 22.6 mg/dL
  CRE: 0.2 mg/dL
  Ca: 10.9 mg/dL
  Cl: 106.4 meq/L
  DBIL: 0.018 mg/dL
  GLC: 174.6 mg/dL
  IP: 7.1 mg/dL
  K: 4.1 meq/L
  LDH: 51.8 IU/L
  Na: 143 meq/L
  PL: 147 mg/dL
  RALB: 2.6 g/dL
  TBIL: 0.05 mg/dL
  TC: 85 mg/dL
  TG: 94.8 mg/dL
  TP: 5.9 g/dL
  gamma-GTP: 1.8 IU/L
[…], time 7 day
  TERMINAL_BW: 266.4 g
  APTT: 17.2 s
  Bas: 0%
  Eos: 1%
  Fbg: 287 mg/dL
  Hb: 13.6 g/dL
  Ht: 39%
  Lym: 78%
  MCH: 20.5 pg
  MCHC: 34.9%
  MCV: 58.6 fL
  Mono: 2.2%
  Neu: 18.6%
  PT: 11.9 s
  Plat: 141.2 x10_4/uL
  RBC: 665.8 x10_4/ul
  Ret: 4.7%
  WBC: 126.3 x10_2/uL
  KIDNEY_L: 1.2 g
  KIDNEY_R: 1.1 g
  KIDNEY_TOTAL: 2.3 g
  LIVER: 12.5 g
  A/G: 0.8
  ALP: 1417.8 IU/L
  ALT: 29.8 IU/L
  AST: 57.2 IU/L
  BUN: 22.4 mg/dL
  CRE: 0.2 mg/dL
  Ca: 11.2 mg/dL
  Cl: 105.2 meq/L
  DBIL: 0.018 mg/dL
  GLC: 177.8 mg/dL
  IP: 6.7 mg/dL
  K: 4.4 meq/L
  LDH: 57.4 IU/L
  Na: 143.2 meq/L
  PL: 145.6 mg/dL
  RALB: 2.6 g/dL
  TBIL: 0.044 mg/dL
  TC: 77 mg/dL
  TG: 138.6 mg/dL
  TP: 6 g/dL
  gamma-GTP: 1.2 IU/L
[…], time 14 day
  TERMINAL_BW: 304.7 g
  APTT: 16.6 s
  Bas: 0.4%
  Eos: 0.8%
  Fbg: 281.6 mg/dL
  Hb: 14.4 g/dL
  Ht: 40.7%
  Lym: 82.8%
  MCH: 20.3 pg
  MCHC: 35.4%
  MCV: 57.2 fL
  Mono: 1.6%
  Neu: 14.2%
  PT: 12.5 s
  Plat: 122.8 x10_4/uL
  RBC: 711.2 x10_4/ul
  Ret: 4.1%
  WBC: 116.3 x10_2/uL
  KIDNEY_L: 1.2 g
  KIDNEY_R: 1.2 g
  KIDNEY_TOTAL: 2.5 g
  LIVER: 12.9 g
  A/G: 0.8
  ALP: 1437.6 IU/L
  ALT: 31.6 IU/L
  AST: 63 IU/L
  BUN: 27.2 mg/dL
  CRE: 0.2 mg/dL
  Ca: 10.8 mg/dL
  Cl: 105 meq/L
  DBIL: 0.016 mg/dL
  GLC: 183.2 mg/dL
  IP: 6.7 mg/dL
  K: 4.6 meq/L
  LDH: 54 IU/L
  Na: 142.8 meq/L
  PL: 149.8 mg/dL
  RALB: 2.6 g/dL
  TBIL: 0.048 mg/dL
  TC: 75.6 mg/dL
  TG: 132.8 mg/dL
  TP: 6 g/dL
  gamma-GTP: 1 IU/L
[…], time 28 day
  TERMINAL_BW: 371.1 g
  APTT: 19.3 s
  Bas: 1%
  Eos: 1%
  Fbg: 322.5 mg/dL
  Hb: 15.1 g/dL
  Ht: 42.9%
  Lym: 80.8%
  MCH: 18.9 pg
  MCHC: 35.2%
  MCV: 53.8 fL
  Mono: 2.2%
  Neu: 14.5%
  PT: 12.9 s
  Plat: 127.8 x10_4/uL
  RBC: 798.8 x10_4/ul
  Ret: 2.8%
  WBC: 135.7 x10_2/uL
  KIDNEY_L: 1.4 g
  KIDNEY_R: 1.3 g
  KIDNEY_TOTAL: 2.7 g
  LIVER: 14.4 g
  A/G: 0.6
  ALP: 1068.2 IU/L
  ALT: 30.2 IU/L
  AST: 60.2 IU/L
  BUN: 26.8 mg/dL
  CRE: 0.2 mg/dL
  Ca: 10.9 mg/dL
  Cl: 106 meq/L
  DBIL: 0.0175 mg/dL
  GLC: 178 mg/dL
  IP: 6.1 mg/dL
  K: 4 meq/L
  LDH: 52.8 IU/L
  Na: 145.2 meq/L
  PL: 128.8 mg/dL
  RALB: 2.6 g/dL
  TBIL: 0.06 mg/dL
  TC: 63.2 mg/dL
  TG: 105 mg/dL
  TP: 6.4 g/dL
  gamma-GTP: 1.2 IU/L
